US20250093329A1, “SCREENING OF COMPOUNDS” (THE UNIVERSITY OF TULSA, priority 2022, published 2025)

Experiments:
Assay type in all cases: cell-based
[1] = system: H293; assay: Cytotoxicity testing, CellTiter-Blue assay, 24 hour (FIG. 3); conditions: 100 μM, 24 hour compound incubation
Method: (§1) The cytotoxicity tests were carried out in the following manner. Living cells are known to convert resazurin to the fluorescent compound resorufin. Test systems which rely upon this reaction are commercially available. One such test is known at the Cell Titer Blue Cell Viability test assay from Promega. Cell cultures for each of the identified cancer lines were obtained from ATCC and maintained in Dulbecco's Modified Eagle Medium (DMEM) supplemented with 10% fetal bovine serum (FBS) and pen/strep. As known to those skilled in the art, DMEM typically includes the components identified below.
(§2) The test method provides for incubating the cell cultures at temperatures which correspond to the range of body temperatures experienced by the patient from which the cancer cells were obtained. Typically, incubation temperatures will be between the temperatures of 36.1° C. and 37.2° C. In most cases incubation will occur at 37° C. Additionally, the cell cultures are kept under an atmosphere which mimics cell conditions of the tumor within the patient's body. In most cases, the tumor microenvironment (TME) is characterized by hypoxia (low oxygen) and may also be characterized by hypercapnia (increased CO2). Hypercapnia results from decreased blood flow which limits CO2 elimination. Restricted CO2 elimination leads to increased HCO3^− conversion to CO2 in order to neutralize lactate as altered tumor cell metabolism produces more CO2 than normal. Normal tissue averages about 5% oxygen with oxygen ranges from about 3% to 7.4%. […] In the case of CO2, normocapnic is around 5% CO2, while hypercapnic can rise to 10% CO2. Therefore, to mimic the environment of the tumor the method utilizes an incubator designed to provide the optimal gaseous environment corresponding to that of the tumor. Thus, the incubator will be capable of maintaining an atmosphere having an oxygen content in the range of […] and a CO2 in the range of 1% to 10%.
(§3) After allowing for proliferation of the cells, the cells were distributed across a plurality of test wells containing from 100 μL DMEM plus 10% FBS and allowed to attach to the surface of the test wells. Typically, the time for attachment will require about 12 hours to about 18 hours. […] Following treatment of the cells with the N-benzyl sulfonamide or control, the toxicity of the compound to the cells will be determined by addition of a luminescing agent. […] Subsequently, the fluorescence of resazurin is measured by excitation at 560 nm and recording the emission at 590 nm within an instrument configured to measure fluorescence intensity. Two commercially available systems are the BioTek Cytation 5 plate reader and the Promega Glomax Multi+detection system. […]

[2] = system: each cell line tested; assay: ATP levels by CellTiter-Glo, all cell lines of Table 1 taken together; conditions: 100 μM compound with 2-DG, Table 1 cell lines
From the text: A wide variety of ATP luminescing detection reagents are available commercially. So long as the reagent produces a luminescence in the presence of ATP, the reagent will be suitable for use in the present method. Suitable reagents include but are not limited to any ATP dependent luciferase such as but not limited to firefly luciferase, other modified luciferase based reagents, i.e. luciferase derivatives. According to the rapid method for determining the anti-cancer activity of a compound, a sample of living cells is distributed across a number of testing wells. Typically, 96-well plates are used; however, the number of wells is not critical to the current method. When using a 96-well plate the number of living cells will commonly be about 20,000. […] The sample wells contain a cell growth medium to promote cell health and growth and an additive to prevent bacterial contamination of the wells. One common example of the cell growth medium is DMEM with 10% FBS as described above. One example of the additive to prevent bacterial contamination is a solution of penicillin G and streptomycin referred to commonly as Pen-Strep. The Pen-Strep solution typically contains 5000 units of penicillin G and 5000 micrograms of streptomycin. Thus, the rapid determination of anti-cancer compounds can be carried out using the following method. • The desired number of cells are distributed in a 96-well plate containing 100 μL DMEM plus 10% FBS with optional Pen-Strep. • After 24 hours, cells are treated with the compound of interest or a 5% solution of dimethyl sulfoxide (DMSO) in water as a control. • The time period for exposure to the compound of interest and the DMSO control will vary depending on the luminescing detection reagent. However, when using a commercially available reagent such as resazurin (CellTiter Blue commercially available from Promega) or luciferase or a luciferase derivative (CellTiter Glo commercially available from Promega) the time period can be readily determined with reference to literature from the commercial source. Other luminescing detection agents can also be used with minimal experimentation to determine the desired compound exposure time. • Upon completion of the time period for exposure to the compound of interest or the DMSO, 10 μL of the luminescing detection reagent is added and the cells are lysed by a detergent added along with the luminescing detection reagent. • When the reagent is resazurin, as found in CellTiter-Blue the time period for exposure to the compound of interest and the DMSO will be about 24 hours. • When the reagent is luciferase or a luciferase derivative as found in CellTiter-Glo the time period for exposure to the compound of interest and the DMSO will be about 30 minutes to four hours. • The luminescing detection reagent is added over a period of time. • When using resazurin, the time period for the addition of the 10 μl volume takes place over a period of about one to four hours. • When using luciferase or a luciferase derivative, the time period is about 3 minutes to about 7 minutes, typically about 5 minutes. • During the time period of addition of the luminescing detection reagent the resulting luminescence is measured using conventional methods and devices. […] If the compound of interest deactivates the cell, then the cell produces less or no ATP. As a result, the cells in the well treated with the compound of interest will have a lower luminescence value as compared to the cells in wells treated with DMSO. • The value for the cells treated with the compound of interest is reported as a “percent of control” (POC) value. The determination of POC is calculated by dividing the averaged response from duplicate wells containing the cells as treated with the compound of interest by the average response of duplicate control wells which contain only cells and DMSO (in other words, a blank control experiment). […]

[3] = system: NCI-H196; assay: Cytotoxicity testing, CellTiter-Blue assay, 24 hour (FIG. 3); conditions: 100 μM, 24 hour compound incubation
Method: as §1, §2, §3

[4] = system: HEK293 (kidney cancer) cells; assay: Traditional versus rapid screening (FIG. 15); conditions: DMEM, CellTiter-Glo 1 hr, with or without 2DG, versus CellTiter-Blue/CellTiter-Glo 24 hr
From the text: FIG. 15 provides a comparison of traditional cytotoxicity testing the improved testing method described herein using HEK293 cells (kidney cancer), DMEM media, and the library sulfonamide compounds 1-30 found in FIGS. 1A-1C.
When used to identify compounds for specific patients, the following steps will be carried out: • Individualized patient cells will be acquired from a tumor biopsy and cultured/grown in patient blood serum and/or plasma. (In most instances the cells will be obtained using a needle biopsy; i.e. fine needle aspiration biopsy. Optionally, the cells may be obtained from resected tumor (i.e. excisional biopsy, which is an attempt at complete tumor removal), and/or a core biopsy; (i.e. removal of part of the tumor). Alternatively, cells may be obtained from blood draw samples, which would contain leukemia, lymphoma and myeloma cells.) • The cells (as few as 100 cells per experiment) will be screened directly in patient blood serum and/or plasma in the absence or presence of glycolysis inhibitor, 2-deoxyglucose (2DG) using a rapid (1-2 hr) screening assay (CellTiter-Glo, or “CTG”). • NOTE: while the discussion herein focuses on CTG, other assays suitable for measuring changes in ATP levels will perform equally as well. […] DMEM contains glucose, but L15 has substituted glucose with galactose. […]

With `Cc1cccc2c(CNS(=O)(=O)c3ccccc3)c[nH]c12` [Compound 6, N-[(7-methyl-1H-indol-3-yl)methyl]benzenesulfonamide] the “effectiveness, percent reduction in cell viability (FIG. 3)” value (“effectiveness, percent reduction” for short) [1] was “effective”.

`CC(=O)n1cc(CNS(=O)(=O)c2ccc(Cl)cc2)c2ccccc21` [Compound 4, N-[(1-acetyl-1H-indole-3-yl)methyl]-4-chlorobenzenesulfonamide] was tested, and the “effectiveness across the cell lines, with 2-DG” value [2] was “little effect”.

`O=S(=O)(NCc1c[nH]c2ccccc12)c1ccccc1` [Compound 3, N-[(1H-indol-3-yl)methyl]benzenesulfonamide] was tested, and the “effectiveness across the cell lines, with 2-DG” value [2] was “little effect”.

With `COc1ccc(S(=O)(=O)NCc2c[nH]c3ccccc23)cc1` [Compound 23, N-(1H-indol-3-ylmethyl)-4-methoxybenzenesulfonamide] the “effectiveness across the cell lines, with 2-DG” value [2] was “little effect”.

For `Cc1ccc(S(=O)(=O)NCc2c[nH]c3cccc(Br)c23)cc1` [Compound 5, N-[(4-bromo-1H-indol-3-yl)methyl]-4-methylbenzenesulfonamide], the “effectiveness, percent reduction” value [1] was “effective”, the “effectiveness, percent reduction” value [3] was “effectiveness” and the “sensitivity of rapid assays versus traditional methods (FIG. 15)” value [4] was “enhanced sensitivity”.

In the case of `Cc1ccc(S(=O)(=O)NCc2c[nH]c3ccccc23)cc1` [Compound 1, N-[(1H-indol-3-yl)methyl]-4-methylbenzenesulfonamide], the “effectiveness across the cell lines, with 2-DG” value [2] is reported as “little effect”.

`Cc1ccc(S(=O)(=O)NCc2ccc3ncccc3c2)cc1` [Compound 22, 4-methyl-N-(quinolin-6-ylmethyl)benzenesulfonamide] was tested, and the “effectiveness across the cell lines, with 2-DG” value [2] was “little effect”.
